In the oligonucleotide strings, read from the 5' end, every base follows the letter of its sugar. An asterisk marks phosphorothioate; unmarked linkages are phosphodiester. Other units and linkages are bracketed, terminal groups are in braces. A string of capitals states the bases alone. d = 2'-deoxy (DNA)

The subject of one data set is pancreatic cancer. Put plainly: Phase I/II study P-001: PFS and OS in pancreatic cancer patients. The data set is classed as in vivo, human. As to conditions: for OS: pancreatic cancer; for OS (overall survival) / PFS (progression free survival): second line pancreatic cancer patients, 4 days on and 10 days off. The protocol:
At screening, up to 10 “measurable lesions” (i.e. lesions that could be accurately measured in at least 1 dimension with a longest diameter of 2 cm) representative of all involved organs were identified as “target lesions” for tumor response assessment and were measured and documented. All other lesions were defined and recorded as “non-target lesions”. Tumor response was determined by the local investigator every 8 weeks after start of the first trabedersen cycle during follow-up visits, irrespective of whether the patient was still on treatment or off treatment. The tumor assessment was based on Response Evaluation Criteria in Solid Tumors (RECIST 1.0) criteria. The categories of overall tumor response are as follows: (1) Complete response (CR): disappearance of all target and non-target lesions and normalization of tumor marker level; (2) Partial response (PR): at least 30% decrease in the sum of the longest diameter (LD) of target lesions (baseline sum LD as reference) and/or persistence of one or more non-target lesions and/or maintenance of tumor marker level above normal limits; (3) Stable disease (SD): less than 30% decrease or less than 20% increase in sum LD target lesions (smallest sum LD since treatment start as reference) and/or persistence of one or more non-target lesions and/or maintenance of tumor marker level above normal limits; (4) Progressive disease (PD) At least 20% increase in sum LD target lesions (smallest sum LD since treatment start as reference) and/or unequivocal progression of existing nontarget lesions and/or appearance of one or more new lesions; and (5) Unknown.
Progression-free survival (PFS) was defined as the time from Day 1 until tumor progression or death from any cause. The date of progression was either the date of the image showing progression or the date of treatment termination in case one of the reasons for treatment termination was tumor progression (referring to clinical progression as assessed by the Investigator), whichever occurred first.
Overall survival (OS) was defined as the time from Day 1 until death from any cause. All patients were followed for survival during the follow-up assessments every 8 weeks. The survival status was documented at the Final Visit (Day 29) and during the 8-weekly post-treatment follow-up assessments, and was continued to be collected after study closure until database lock or until the patient was lost to follow-up.
There were […] line patients and 11 third line and beyond on the 4 days on and 10 days off regimen. The PFS/OS (progression free survival/overall survival ratio) of these second line patients in months were: 1.87/5.60 (N=6), 1.87/9.93 (N=11) and 2.72/11.80 (N=5) at increasing mean dose of 140 mg/m^2/day, 167 mg/m^2/day, and 196 mg/m^2/day, respectively. The OS of 9.93 and 11.80 are higher than the highest reported in the 65 trials reported in the literature during 1997-2015 (range=2.50-9.20/median=5.50). The corresponding PFS values were in line with reported literature (range=0.00-7.65/median=2.43). […] Trabedersen itself was not having an impact on the tumor (FIG. 1).

In data set [1] the test system is C8161 human melanoma cells. The data set can be described thus: C8161 melanoma xenograft model: tumor growth and survival.
Experimental: Sixty female athymic nude mice were intradermally inoculated with C8161 human melanoma cells and randomized into six groups of 10 mice. Three groups received monotherapy treatment with either OT-101 (trabedersen) (16 mg/kg) (Group 2) or Dacarbazine (DTIC; 1 or 10 mg/kg; Groups 3, 4). Two groups received combination therapy with OT-101/DTIC at 16/1 mg/kg or 16/10 mg/kg (Groups 5 and 6). Vehicle (0.9% saline, Groups 1, 3, and 4) and OT-101 were administered 3 times/week via subcutaneous injection. Vehicle (0.9% saline, Groups 1 and 2) and DTIC (1 or 10 mg/kg) were administered via intraperitoneal injection four times/week. All OT-101/Trabedersen treatments commenced at day 0 of the study and all DTIC treatments commenced on day 14. Mice were monitored for adverse effects, body weight and tumor size three times weekly. The tumor, lungs, liver and kidneys were excised from all mice at termination and weighed.
The mark [2] stands for this setting: mean dose 167 mg/m^2/day (N=11).

Take “trabedersen: TGFβ2 specific phosphorothioate antisense oligodeoxynucleotide with the sequence 5′-CGGCATGTCTATTTTGTA-3′ (SEQ ID No: 1) (antisense dC*dG*dG*dC*dA*dT*dG*dT*dC*dT*dA*dT*dT*dT*dT*dG*dT*dA)”: the “overall survival (OS) rate versus dose” value in the data set on pancreatic cancer (pancreatic cancer patients, trabedersen as second line treatment (FIG. 1)) was “dose dependent increase”. The OS is given as 14.7 mos in the data set on pancreatic cancer (4/10 cohort treated with subsequent chemotherapies), 2.93 mos in the data set on pancreatic cancer (4/10 cohort without subsequent chemotherapies), 2.80 mos with pancreatic cancer (chemotherapy on 2nd line followed with trabedersen 4/10 regimen as third line (N=9)) and 9.93 mos in the data set on pancreatic cancer (trabedersen first on 2nd line followed with subsequent therapies (N=11)). Moreover, the “OS (overall survival)” value with pancreatic cancer (mean dose 140 mg/m^2/day (N=6)) came to 5.60 months; in the data set with pancreatic cancer (setting [2]), 9.93 months; in the data set on pancreatic cancer (mean dose 196 mg/m^2/day (N=5)), 11.80 months. The “PFS (progression free survival)” value with pancreatic cancer (mean dose 140 mg/m^2/day (N=6)) was determined as 1.87 months; in the data set on pancreatic cancer (setting [2]) it was 1.87 months; in the data set on pancreatic cancer (mean dose 196 mg/m^2/day (N=5)), 2.72 months. Further, the “Tumor growth suppressed relative to control group 1” value in data set [1] (day 42, group 2: OT-101 16 mg/kg s.c. 3 times/week from day 0) is 2%. The median survival in data set [1] (group 2: OT-101 16 mg/kg, sacrifice at tumor size 2,000 mm^3) was found to be 47 days.

The values above are taken from patent US20170226518A1, “COMPOSITIONS AND METHODS FOR TREATING CANCER” (Autotelic LLC, priority 2016, published 2017).
